These results are taken from article PMC7531004, “Discovery of gramicidin A analogues with altered activities by multidimensional screening of a one-bead-one-compound library” (Nature Communications, 2020).

Data set [1] is described as follows: H+/Na+ transport assay of bead-derived peptides (one-point).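 Further: relative to parent gramicidin A activity set to 1.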 It is filed as biochemical. Also noted: key: relative activity; mean of two control wells = 1.00. Conditions: bead-derived peptide solution, EYPC/EYPG LUVs. An outline of the steps: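 Pyranine (1.0 mM)-loaded LUVs containing egg yolk phosphatidylglycerol were prepared by film hydration, sonication and extrusion, then mixed with diluted bead-derived peptide in 96-well format and vortexed 30 min at room temperature. Fluorescence was normalized between untreated LUVs (0%) and Triton X-100 lysis (100%).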

Data set [2] deals with P388 mouse leukemia cells. To be noted: 92 h. An outline of the steps: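 First, library peptide stocks are diluted 250-fold in RPMI1640 with 10% heat-inactivated FBS. Next, they are mixed with P388 cells to give 1 × 10^4 cells/mL and incubated 92 h at 37 °C, 5% CO2. Finally, viability (%) is scored by WST-1 absorbance at 415 nm.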
The test system of data set [3] is Streptococcus pyogenes SSI-9. The experiment in a line: Antibacterial activity assay of bead-derived peptides (three concentrations). It is filed as cell-based. Also noted: key: +++: inhibition by the 640-fold diluted peptide solution; ++: inhibition by the 160-fold diluted solution; +: inhibition by the 40-fold diluted solution; -: no inhibition. To be noted: S. pyogenes, bead-derived peptide solution, three concentrations. An outline of the steps: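 Bead-derived library peptide stocks in DMSO were tested undiluted and after 4- and 16-fold DMSO dilution against S. pyogenes SSI-9 (2 × 10^5 CFU/well) in cation-adjusted Mueller Hinton Broth with 5% laked horse blood. After 18 h at 37 °C, wells were scored for precipitation of grown cells.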

Structures are written as SMILES. Where a SMILES comes first, the peptide text is derived from it. [ ]: non-standard residue; d: D form. The star is where a group is joined. NHCH2CH2OH = OCCN*; For = O=C*

Consider `CC(C)C[C@@H](NC(=O)[C@H](C)NC(=O)CNC(=O)[C@@H](NC=O)C(C)C)C(=O)N[C@@H](C)C(=O)N[C@H](CC(C)C)C(=O)N[C@H](C(=O)N[C@@H](C(=O)N[C@@H](Cc1c[nH]c2ccccc12)C(=O)N[C@@H](C(=O)N[C@@H](Cc1c[nH]c2ccccc12)C(=O)N[C@H](CC(C)C)C(=O)N[C@@H](Cc1c[nH]c2ccccc12)C(=O)N[C@H](CC(C)C)C(=O)N[C@@H](Cc1c[nH]c2ccccc12)C(=O)NCCO)[C@H](C)O)C(C)C)C(C)C` [compound 8342] (For-VGA[dL]A[dL]V[dV]W[dT]W[dL]W[dL]W-NHCH2CH2OH), for which, in data set [1], the “H+/Na+ transport activity normalized against the value of 1 (1.00)” value (“H+/Na+ transport activity normalized” for short) is 1.00. The cell viability/% in data set [2] is recorded as 54.5%. Besides, the antibacterial activity result in data set [3] is on record as “-”.

Regarding `CC(C)C[C@@H](NC(=O)[C@H](C)NC(=O)[C@H](NC(=O)[C@H](C)NC(=O)CNC(=O)[C@@H](NC=O)C(C)C)C(C)C)C(=O)N[C@H](C(=O)N[C@@H](C(=O)N[C@@H](Cc1c[nH]c2ccccc12)C(=O)N[C@@H](C(=O)N[C@@H](Cc1c[nH]c2ccccc12)C(=O)N[C@H](CC(C)C)C(=O)N[C@@H](Cc1c[nH]c2ccccc12)C(=O)N[C@H](CC(C)C)C(=O)N[C@@H](Cc1c[nH]c2ccccc12)C(=O)NCCO)[C@H](C)O)[C@H](C)O)C(C)C` [compound 8374] (For-VGA[dV]A[dL]V[dT]W[dT]W[dL]W[dL]W-NHCH2CH2OH), the “H+/Na+ transport activity normalized” value in data set [1] turned out to be 1.02. The compound also returned a cell viability/% in data set [2] of 66.4%. Besides, the antibacterial activity entry in data set [3] was “-”.

Consider `CNC(=O)C[C@@H](NC(=O)[C@H](Cc1c[nH]c2ccccc12)NC(=O)[C@@H](CC(C)C)NC(=O)[C@H](Cc1c[nH]c2ccccc12)NC(=O)[C@H](NC(=O)[C@H](Cc1c[nH]c2ccccc12)NC(=O)[C@@H](CC(C)C)NC(=O)[C@@H](NC(=O)[C@H](NC(=O)[C@H](C)NC(=O)[C@H](NC(=O)[C@H](C)NC(=O)CNC(=O)[C@@H](NC=O)C(C)C)C(C)C)C(C)C)C(C)C)C(C)C)C(=O)N[C@@H](Cc1c[nH]c2ccccc12)C(=O)NCCO` [compound 8400] (For-VGA[dV]A[dV]V[dL]W[dV]W[dL]W[dD](NHMe)W-NHCH2CH2OH), for which the “H+/Na+ transport activity normalized” value in data set [1] worked out at 1.01. This compound also displayed a cell viability/% in data set [2] of 34.4%. Further, the antibacterial activity entry in data set [3] was “-”.

As for `CNC(=O)C[C@@H](NC(=O)[C@@H](NC(=O)[C@@H](CC(C)C)NC(=O)[C@H](C)NC(=O)[C@H](NC(=O)[C@H](C)NC(=O)CNC(=O)[C@@H](NC=O)C(C)C)C(C)C)C(C)C)C(=O)N[C@@H](Cc1c[nH]c2ccccc12)C(=O)N[C@@H](C(=O)N[C@@H](Cc1c[nH]c2ccccc12)C(=O)N[C@@H](C(=O)N[C@@H](Cc1c[nH]c2ccccc12)C(=O)N[C@@H](C(=O)N[C@@H](Cc1c[nH]c2ccccc12)C(=O)NCCO)C(C)C)C(C)C)C(C)C` [compound 8459] (For-VGA[dV]A[dL]V[dD](NHMe)W[dV]W[dV]W[dV]W-NHCH2CH2OH), in data set [1], the “H+/Na+ transport activity normalized” value amounted to 1.03. The compound also came in with a cell viability/% in data set [2] of 47.5%. The antibacterial activity entry in data set [3] is on record as “-”.

In the case of `CC(C)C[C@@H](NC(=O)[C@H](C)NC(=O)CNC(=O)[C@@H](NC=O)C(C)C)C(=O)N[C@@H](C)C(=O)N[C@@H](C(=O)N[C@H](C(=O)N[C@H](CC(C)C)C(=O)N[C@@H](Cc1c[nH]c2ccccc12)C(=O)N[C@@H](C(=O)N[C@@H](Cc1c[nH]c2ccccc12)C(=O)N[C@H](CC(C)C)C(=O)N[C@@H](Cc1c[nH]c2ccccc12)C(=O)N[C@H](CC(C)C)C(=O)N[C@@H](Cc1c[nH]c2ccccc12)C(=O)NCCO)C(C)C)C(C)C)C(C)C` [compound 8464] (For-VGA[dL]A[dV]V[dL]W[dV]W[dL]W[dL]W-NHCH2CH2OH), the “H+/Na+ transport activity normalized” value in data set [1] amounted to 1.23. Also, the cell viability/% in data set [2] stood at 4.1%. In addition, the antibacterial activity entry in data set [3] was “-”.

For the compound `CC(C)C[C@@H](NC(=O)[C@H](C)NC(=O)CNC(=O)[C@@H](NC=O)C(C)C)C(=O)N[C@@H](C)C(=O)N[C@H](CC(C)C)C(=O)N[C@H](C(=O)N[C@@H](C(=O)N[C@@H](Cc1c[nH]c2ccccc12)C(=O)N[C@@H](C(=O)N[C@@H](Cc1c[nH]c2ccccc12)C(=O)N[C@@H](C(=O)N[C@@H](Cc1c[nH]c2ccccc12)C(=O)N[C@H](CC(C)C)C(=O)N[C@@H](Cc1c[nH]c2ccccc12)C(=O)NCCO)[C@H](C)O)C(C)C)C(C)C)C(C)C` [compound 8498] (For-VGA[dL]A[dL]V[dV]W[dV]W[dT]W[dL]W-NHCH2CH2OH), the “H+/Na+ transport activity normalized” value in data set [1] is 1.01. This compound registered a cell viability/% in data set [2] of 52.6%. Besides, the antibacterial activity entry in data set [3] is “-”.

As for `CNC(=O)C[C@@H](NC(=O)[C@H](C)NC(=O)[C@@H](CC(C)C)NC(=O)[C@H](C)NC(=O)CNC(=O)[C@@H](NC=O)C(C)C)C(=O)N[C@H](C(=O)N[C@@H](C(=O)N[C@@H](Cc1c[nH]c2ccccc12)C(=O)N[C@H](CC(C)C)C(=O)N[C@@H](Cc1c[nH]c2ccccc12)C(=O)N[C@@H](C(=O)N[C@@H](Cc1c[nH]c2ccccc12)C(=O)N[C@H](CC(C)C)C(=O)N[C@@H](Cc1c[nH]c2ccccc12)C(=O)NCCO)C(C)C)C(C)C)C(C)C` [compound 8535] (For-VGA[dL]A[dD](NHMe)V[dV]W[dL]W[dV]W[dL]W-NHCH2CH2OH), the “H+/Na+ transport activity normalized” value in data set [1] worked out at 1.28. In data set [2], the cell viability/% stood at 71.4%. In addition, in data set [3], the antibacterial activity result was “-”.

Take `CC(C)[C@H](NC=O)C(=O)NCC(=O)N[C@@H](C)C(=O)N[C@@H](C(=O)N[C@@H](C)C(=O)N[C@@H](C(=O)N[C@H](C(=O)N[C@@H](C(=O)N[C@@H](Cc1c[nH]c2ccccc12)C(=O)N[C@@H](C(=O)N[C@@H](Cc1c[nH]c2ccccc12)C(=O)N[C@@H](C(=O)N[C@@H](Cc1c[nH]c2ccccc12)C(=O)N[C@@H](C(=O)N[C@@H](Cc1c[nH]c2ccccc12)C(=O)NCCO)C(C)C)C(C)C)C(C)C)C(C)C)C(C)C)C(C)C)[C@H](C)O` [compound 8545] (For-VGA[dT]A[dV]V[dV]W[dV]W[dV]W[dV]W-NHCH2CH2OH): in data set [1], the “H+/Na+ transport activity normalized” value amounted to 1.01. This compound also showed a cell viability/% in data set [2] of 83.1%. For the same compound, in data set [3], the antibacterial activity entry was “-”.

As for `CNC(=O)C[C@@H](NC(=O)[C@H](Cc1c[nH]c2ccccc12)NC(=O)[C@H](NC(=O)[C@H](Cc1c[nH]c2ccccc12)NC(=O)[C@H](NC(=O)[C@H](Cc1c[nH]c2ccccc12)NC(=O)[C@@H](CC(C)C)NC(=O)[C@@H](NC(=O)[C@H](NC(=O)[C@H](C)NC(=O)[C@@H](CC(C)C)NC(=O)[C@H](C)NC(=O)CNC(=O)[C@@H](NC=O)C(C)C)C(C)C)C(C)C)C(C)C)C(C)C)C(=O)N[C@@H](Cc1c[nH]c2ccccc12)C(=O)NCCO` [compound 8567] (For-VGA[dL]A[dV]V[dL]W[dV]W[dV]W[dD](NHMe)W-NHCH2CH2OH), in data set [1], the “H+/Na+ transport activity normalized” value was determined as 1.22. For the same compound, the cell viability/% in data set [2] amounted to 60.9%. For the same compound, in data set [3], the antibacterial activity result is recorded as “-”.

For the compound `CC(C)C[C@@H](NC(=O)[C@H](Cc1c[nH]c2ccccc12)NC(=O)[C@H](NC(=O)[C@@H](NC(=O)[C@H](NC(=O)[C@H](C)NC(=O)[C@H](NC(=O)[C@H](C)NC(=O)CNC(=O)[C@@H](NC=O)C(C)C)C(C)C)C(C)C)C(C)C)[C@H](C)O)C(=O)N[C@@H](Cc1c[nH]c2ccccc12)C(=O)N[C@@H](C(=O)N[C@@H](Cc1c[nH]c2ccccc12)C(=O)N[C@@H](C(=O)N[C@@H](Cc1c[nH]c2ccccc12)C(=O)NCCO)C(C)C)C(C)C` [compound 8596] (For-VGA[dV]A[dV]V[dT]W[dL]W[dV]W[dV]W-NHCH2CH2OH), the “H+/Na+ transport activity normalized” value in data set [1] is on record as 1.07. This compound returned a cell viability/% in data set [2] of 56.2%. Besides, the antibacterial activity result in data set [3] was “-”.

In the case of `CNC(=O)C[C@@H](NC(=O)[C@@H](NC(=O)[C@@H](CC(C)C)NC(=O)[C@H](C)NC(=O)[C@@H](CC(C)C)NC(=O)[C@H](C)NC(=O)CNC(=O)[C@@H](NC=O)C(C)C)C(C)C)C(=O)N[C@@H](Cc1c[nH]c2ccccc12)C(=O)N[C@H](CC(C)C)C(=O)N[C@@H](Cc1c[nH]c2ccccc12)C(=O)N[C@@H](C(=O)N[C@@H](Cc1c[nH]c2ccccc12)C(=O)N[C@H](CC(C)C)C(=O)N[C@@H](Cc1c[nH]c2ccccc12)C(=O)NCCO)C(C)C` [compound 8600] (For-VGA[dL]A[dL]V[dD](NHMe)W[dL]W[dV]W[dL]W-NHCH2CH2OH), the “H+/Na+ transport activity normalized” value in data set [1] was found to be 1.20. In data set [2], this compound displayed a cell viability/% of 55.3%. Also, in data set [3], the antibacterial activity result is “-”.

On to `CC(C)C[C@@H](NC(=O)[C@H](Cc1c[nH]c2ccccc12)NC(=O)[C@H](NC(=O)[C@H](Cc1c[nH]c2ccccc12)NC(=O)[C@H](NC(=O)[C@H](Cc1c[nH]c2ccccc12)NC(=O)[C@@H](CC(C)C)NC(=O)[C@@H](NC(=O)[C@H](NC(=O)[C@H](C)NC(=O)[C@H](NC(=O)[C@H](C)NC(=O)CNC(=O)[C@@H](NC=O)C(C)C)C(C)C)C(C)C)C(C)C)C(C)C)[C@H](C)O)C(=O)N[C@@H](Cc1c[nH]c2ccccc12)C(=O)NCCO` [compound 8633] (For-VGA[dV]A[dV]V[dL]W[dV]W[dT]W[dL]W-NHCH2CH2OH), for which, in data set [1], the “H+/Na+ transport activity normalized” value is 1.00. In addition, the cell viability/% in data set [2] is 61.8%. For the same compound, the antibacterial activity result in data set [3] is given as “-”.
